In test [1] the test system is PC3, RKOp21 and SKOV-3 cell lines. Nature of the test: XTT cytotoxicity assay, mean over all three cell lines. The class given is cell-based, human. As to conditions: mean value over all three cell lines. Here is the method: Following 2 days of continuous drug exposure 50 μl of freshly prepared XTT-PMS solution {2% 0.386 mg/ml PMS (N-Methyl Dibenzopyrazine Methylsulphate; Sigma, Cat. No. […] Serva, Cat. No. 38450) in RPMI 1640 medium without phenol red} was added to the wells. To measure the proportion of living cells, the cells were incubated for 3 h with XTT-PMS reagent at 37° C., 5% CO2, humidified atmosphere allowing to form the formazan salt. […] Inhibition curves were generated and IC50 values calculated by using GraphPad Prism. In the following table 7 cytotoxicity results (% inhibition of cell growth) obtained in the second set of experiments for selected compounds of the invention are presented in comparison to examples of the prior art (perifosine, miltefosine). The results presented are individual values for the respective cell line as well as the mean value over all three cell lines tested.

Test [2] deals with SKOV-3 (human ovary adenocarcinoma) cells. Nature of the test: XTT cytotoxicity assay, SKOV-3 cells. The class given is cell-based. The settings on record: for inhibition at 100 µM: Homo sapiens, SK-OV-3, second set of experiments, read-out: SKOV-3 % INH [100 μM]; for SKOV-3 % INH [100 μM]: second set of experiments. Here is the method:
On the first day of the experiment cells were harvested from exponential phase cultures by trypsination, counted and plated into 96 well flat-bottom micro titer plates depending on the cell line as listed below: [table] After a 24 h recovery to allow the cells to resume exponential growth, the test compounds were diluted immediately prior to use and transferred in 25 μl volume to the wells. Following 2 days of continuous drug exposure 50 μl of freshly prepared XTT-PMS solution {2% 0.386 mg/ml PMS (N-Methyl Dibenzopyrazine Methylsulphate; Sigma, Cat. No. […] Serva, Cat. No. 38450) in RPMI 1640 medium without phenol red} was added to the wells. To measure the proportion of living cells, the cells were incubated for 3 h with XTT-PMS reagent at 37° C., 5% CO2, humidified atmosphere allowing to form the formazan salt. […] Inhibition curves were generated and IC50 values calculated by using GraphPad Prism.

Test [3] deals with RKOp21 (human colon adenocarcinoma) cells. Nature of the test: XTT cytotoxicity assay, RKOp21 cells. The class given is cell-based. The settings on record: for inhibition at 31.6 µM / RKOp21 % INH [31.6 μM]: second set of experiments; for inhibition at 31.6 µM: read-out: RKOp21 % INH [31.6 μM]; for IC50: XTT, 48 h exposure, read-out: RKOp21 [IC50 (μM)]. Here is the method: (§1) Cytotoxicity of selected compounds of the invention against different mammalian cell lines was assessed as follows.
(§2) Human tumor cell lines KB/HeLa (ATCC CCL17, human cervix carcinoma), PC3 (ATCC CRL1435, human prostate carcinoma) and RKOp21 (human colon adenocarcinoma; Schmidt et al., Oncogene 2000, 19: 2423-2429) cells were used in an automated XTT screening assay for the assessment of cytotoxicity.
(§3) The XTT assay quantifies cellular metabolic activity which correlates with cell viability and cell number. Test compounds (selected compounds of the invention and known substances as controls) are dissolved in culture medium at 600 μM and added to the tumor cells in 10 different concentrations in a semi-logarithmic fashion starting from 100 μM as highest concentration.
(§4) In a second set of experiments employing PC3, RKOp21 and SKOV-3 (ATCC HTB-77, human ovary adenocarcinoma) cells, test and reference compounds were dissolved in 70% Ethanol/30% H2O in a stock concentration of 10 mM and diluted in cell culture medium to yield either 31.6 μM (PC3 and RKOp21) or 100 μM (SKOV-3) final concentration.
(§5) 48 h later cellular metabolic activity of cells treated with test compounds is quantified by measurement of the absorbance at 490 nm (conversion of XTT dye) in comparison to untreated control cells (100% viability).
(§6) KB/HeLa and PC3 cells were cultivated in RPMI 1640 medium (Gibco, Cat. No. 42401-018) supplemented with 10% heat inactivated fetal calf serum (FCS, Biochrom AG, Cat. No. S0115), 2 mM L-glutamine (Gibco, Cat. No. 25030-24) and 2% Penicillin-Streptomycin (PenStrep, Gibco, Cat. No. 15140-122). RKOp21 cells were grown in DMEM+GlutaMAXTM-I medium (Gibco, Cat. No. 61965-026) supplemented with 10% heat inactivated fetal calf serum (FCS, Biochrom AG, Cat. No. S0115), 2 mM L-glutamine (Gibco, Cat. No. 25030-24), 2% Penicillin-Streptomycin (PenStrep, Gibco, Cat. No. 15140-122) and 1% 1M HEPES (Gibco, Cat. No. 15630-056). All cells were cultured at 37° C. in 5% CO2 humidified air.
(§7) On the first day of the experiment cells were harvested from exponential phase cultures by trypsination, counted and plated into 96 well flat-bottom micro titer plates depending on the cell line as listed below:
(§8) After a 24 h recovery to allow the cells to resume exponential growth, the test compounds were diluted immediately prior to use and transferred in 25 μl volume to the wells.
(§9) Following 2 days of continuous drug exposure 50 μl of freshly prepared XTT-PMS solution {2% 0.386 mg/ml PMS (N-Methyl Dibenzopyrazine Methylsulphate; Sigma, Cat. No. P9625) in PBS+98% 1 mg/ml XTT (Sodium 2,3-bis(2-methoxy-4-nitro-5-sulfophenyl)-5-[(phenylamino)carbonyl]-2H-Tetrazolium; Serva, Cat. No. 38450) in RPMI 1640 medium without phenol red} was added to the wells. To measure the proportion of living cells, the cells were incubated for 3 h with XTT-PMS reagent at 37° C., 5% CO2, humidified atmosphere allowing to form the formazan salt. The amount of soluble formazan salt produced by cellular reduction of XTT is quantified by measuring the absorbance at 490 nm using the Biomek® 2000 ELISA plate reader. %-inhibition (cytotoxicity) of each test compound was calculated in relation to untreated control cells. Inhibition curves were generated and IC50 values calculated by using GraphPad Prism.
For orientation: Tetrazolium assays rely on reduction of a dye to a coloured formazan, in cell work by metabolically active cells.

Test [4] has as its system KB/HeLa (human cervix carcinoma) cells. Nature of the test: XTT cytotoxicity assay, KB/HeLa cells. The class given is cell-based. The settings on record: XTT, 48 h exposure, read-out: KB/HELA [IC50 (μM)]. The protocol:
as §1, §2, §3, §5, §6, §7, §8, §9

Test [5] deals with PC3 (human prostate carcinoma) cells. Nature of the test: XTT cytotoxicity assay, PC3 cells. The class given is cell-based. The settings on record: for inhibition at 31.6 µM / PC3 % INH [31.6 μM]: second set of experiments; for inhibition at 31.6 µM: read-out: PC3 % INH [31.6 μM]; for IC50: XTT, 48 h exposure, read-out: PC3 [IC50 (μM)]. Here is the method: as §1, §2, §3, §4, §5, §6, §7, §8, §9

In test [6] the test system is Moraxella catarrhalis DMS 11994 (ATCC 43617). Nature of the test: Anti-bacterial bouillon microdilution assay (MIC), bacterium D. As to conditions: ATCC43617, 24 h. In kind it is cell-based. Here is the method: Selected compounds of the invention were tested in a bouillon microdilution assay method according to the DIN 58940 (www.din.de) guidelines for determination of susceptibility of bacterial strains with regard to cell growth inhibition. The assay method quantifies bacterial cell growth which corresponds to the turbidity of the liquid culture medium by photometric measurement carried out at 595 nm.
The method of MIC determination was performed according to DIN 58940-5. The volumina were adapted according to the microdilution method as described in DIN 58940-7 guideline.
Dependent on water solubility, compounds of the invention were dissolved either in water or ethanol in a concentration of 10 mg/ml. Subsequently, the stock was further diluted in water to a concentration of 512 μg/ml. The following serial dilutions (factor 2) were performed in water resulting in the following […] testing concentrations: 256 μg/ml, 128 μg/ml, 64 μg/ml, 32 μg/ml, 16 μg/ml, 8 μg/ml, 4 μg/ml, 2 μg/ml, 1 μg/ml, 0.5 μg/ml, 0.25 μg/ml and 0.125 μg/ml. Diluted compounds of the invention were transferred in 100 μl volume to the microtiter plate wells.
Pre-cultures of bacteria were grown in appropriate liquid media (refer to ATCC webpage, www.atcc.org) and afterwards were inoculated in corresponding liquid medium. 100 μl of the inoculums [adjusted to an amount of app. 1×10^6 microorganisms per ml (range of 10^5-10^8 microorganisms per ml)] were added to each of the testing compound concentrations and cultivated under the appropriate conditions.
Before and after incubation, bacterial growth was determined by photometric analysis against a positive control containing growing bacteria without compound and a sterile/negative control containing only the medium.

Converted amounts (≈) assume the structure as drawn. Read-outs that look alike come from different tables or passages of the source. Where only a bound is given, the exact number is not on record here.

`CCCCCCCCC#CCCCCCCCCOP(=O)([O-])OCC[N+](C)(C)C` [Compound 144]: in test [1], the “Mean % INH” value is given as 19.7%. Further, the inhibition at 100 µM in test [2] is -3%. The inhibition at 31.6 µM in test [3] (Homo sapiens) was found to be 48%; in test [5] (Homo sapiens, PC-3), 14%. Also, the IC50 in test [3] (Homo sapiens) was 51.1 µM; in test [4] (Homo sapiens, HeLa), above 100 µM; in test [5] (Homo sapiens, PC-3) it was above 100 µM.

With `CCCCCCCCCCCCCCCCCCOP(=O)([O-])OC1CC[N+](C)(C)CC1` [perifosine, octadecyl-1,1-dimethyl-piperidino-4-yl-phosphate, reference compound], the “Mean % INH” value in test [1] is given as 78.0%. The inhibition at 100 µM in test [2] turned out to be 90.7%. The inhibition at 31.6 µM in test [3] (Homo sapiens) was found to be 63%; in test [5] (Homo sapiens, PC-3) it was 80.2%.

One may read the MIC as the lowest concentration found to suppress growth. A lower MIC goes with inhibition by little substance. Turning to `CCCCCCCCCCCCCCCCOP(=O)([O-])OCC[N+]1(C)CCCC(C(=O)OCC)C1` (centres unmarked) [Compound 260], the “Mean % INH” value in test [1] came out at 47.3%. In test [2], the inhibition at 100 µM worked out at 56.1%. Moreover, the inhibition at 31.6 µM in test [3] (Homo sapiens) amounted to 40.5%; in test [5] (Homo sapiens, PC-3) it was 45.2%. Besides, the MIC in test [6] was found to be 8 µg/mL (≈ 15.4 µM).

With `CCCCCCCCCCCCCCCCOP(=O)([O-])OCCCC[N+](C)(C)C` [Compound 314], in test [1], the “Mean % INH” value was 31.8%. Also, the “SKOV-3 % INH [100 μM]” value in test [2] came to 33.2%. For the same compound, in test [3], the “RKOp21 % INH [31.6 μM]” value was determined as 10.6%. Also, the “PC3 % INH [31.6 μM]” value in test [5] turned out to be 51.6%.

Turning to `CCCCCCCCC=CCCCCCCCCOP(=O)(O)OCCN1CCCCC1` [Compound 19], in test [1], the “Mean % INH” value is given as 32.2%. Besides, in test [2], the “SKOV-3 % INH [100 μM]” value was 26.9%. For the same compound, the “RKOp21 % INH [31.6 μM]” value in test [3] was determined as 53.4%. For the same compound, the IC50 in test [3], in test [4] and in test [5] was above 100 µM in each case. The “PC3 % INH [31.6 μM]” value in test [5] was found to be 16.2%.

For the compound `CCCCCCCCCCOCCOCCOP(=O)([O-])OCC[N+]1(C)CCCCC1` [Compound 20], the “Mean % INH” value in test [1] is given as −1.7%. For the same compound, in test [2], the “SKOV-3 % INH [100 μM]” value is on record as −6.1%. In test [3], the “RKOp21 % INH [31.6 μM]” value is recorded as −12.4% and the IC50 is above 100 µM. Moreover, the IC50 in test [4] is above 100 µM. For the same compound, in test [5], the “PC3 % INH [31.6 μM]” value was 13.4% and the IC50 was above 100 µM.

In the case of `CCCCCCCCCCCCCCCCCCOP(=O)(O)OCCn1ccnc1` [Compound 67], the IC50 is above 100 µM in test [3] (Homo sapiens); above 100 µM in test [4] (Homo sapiens, HeLa); above 100 µM in test [5] (Homo sapiens, PC-3). For the same compound, the MIC in test [6] was 8 µg/mL (≈ 18 µM).

The values are drawn from patent US20070167408A1, “NOVEL ALKYL PHOSPHOLIPID DERIVATIVES WITH REDUCED CYTOTOXICITY AND USES THEREOF” (ZENTARIS GmbH, priority 2005, published 2007).
